Assay: Solubility (descriptive)
Format: physicochemical
Details: 0.9% NaCl release medium
From the text: The samples at each sampling point are filtered through a 0.45 μm microporous film and injected for analysis.

## CC(C)[C@@H](C)/C=C/[C@@H](C)[C@H]1CC[C@H]2C3=CC=C4C[C@@H](O)CC[C@]4(C)[C@H]3CC[C@]12C [ergosterol]
  solubility in the release medium: very low

— patent US20190083398A1 (ZheJiang Chinese Medical University, priority 2016, published 2019)
